Legend:
primary mouse adipocytes = assay: 2-deoxy-3H-glucose uptake in primary mouse adipocytes; format: cell-based
Protocol: (§1) Mouse and human pre-adipocytes culture and differentiation. Inguinal fat pads from 4-8 week old C57BL/6J male and female mice were dissected and mechanically digested for 10 min using spring scissors. Digested tissues were incubated in WAT isolation buffer (10 ml PBS, 2.4 U/ml dispase II (#04942078001, Roche), 10 mg/ml collagenase D (#11088858001, Roche) at 37° C. for 45 min. 20 mL growth media was added and the tissue suspension was filtered through a 100-μm cell strainer and centrifuged at 600×g for 5 min. The cell pellets were resuspended in 20 mL growth media, filtered through a 40-μm cell strainer, centrifuged at 600×g for 5 min, resuspended in 10 mL growth media, and plated in 10-cm collagen-coated dishes. The cells were cultured in growth media (DMEM/F-12 Glutamax, Thermo Fisher Scientific #10565018) supplemented with 10% fetal bovine serum. Two days post-confluency, differentiation was induced with growth media containing 1 μM rosiglitazone, 0.5 mM isobutylmethylxanthine, 1 μM dexamethasone, 5 μg/mL insulin. After two days, cells were re-fed with growth media containing 1 μM rosiglitazone and 5 μg/mL insulin. Cells were fully differentiated after 6-8 days. For ISM1 knockdown or overexpression in primary adipocytes using adenovirus, 500 μL crude virus was mixed with 500 μL fresh growth media containing 1 μM rosiglitazone and 5 μg/mL insulin was added to each well at day 2 of differentiation. At day 4, virus-containing media was removed and 500 μL fresh growth media without stimulators was added to each well. SGBS cells were differentiated as described previously (Fischer-Posovszky et al., 2008; Wabitsch et al., 2001). Briefly, cells were cultured in growth media DMEM/F-12 Glutamax, supplemented with 10% fetal bovine serum, 33 uM biotin, and 17 uM pantothenate. Two days post confluency, differentiation was induced with serum-free DMEM/F12 media containing 33 uM biotin, 17 uM pantothenate, 0.01 mg/ml transferrin, 20 nM insulin, 100 nM cortisol, 0.2 nM triiodothyronine, 25 nM dexamethasone, 0.25 mM isobutyl methylxanthine, and 2 μM rosiglitazone. After four days, cells were re-fed with growth media containing 0.01 mg/ml transferrin 20 nM insulin, 100 nM cortisol, 0.2 nM triiodothyronine. Cells were fully differentiated after day 8-10.
(§2) Glucose uptake. Glucose uptake was performed as previously described (You et al., 2017). Briefly, 2-Deoxy-d-[2,6-3H]-glucose was purchased from PerkinElmer NEN radiochemicals. Fully differentiated adipocytes were washed with KRH buffer and starved in 0.5% BSA in KRH buffer for 4 h. Indicated concentrations of insulin or ISM1 were added at indicated time points. Cells were treated with a mixture of 500 μM 2-deoxy-D-glucose and 1.71 μCimL^−1 2-Deoxy-D-[1,2-3H (N)]-glucose for another 10 min followed by three washes using ice cold KRH buffer containing 200 mM glucose. The passive glucose uptake in the presence of 50 uM CytoB was less than 12% of the total glucose uptake. Cells were solubilized in 1% SDS and radioactivity was measured by liquid scintillation counting.

pAKT^S473 [1] = assay: Signaling induced by ISM1 or insulin in 3T3-F442A cells pre-treated with inhibitors; format: cell-based; conditions: for effect of inhibitor on pAKT^S473 phosphorylation induced by ISM1 and insulin: ISM1 100 nM or insulin 100 nM, 3T3-F442A cells
Protocol: (§3) Western blots and molecular analyses. For western blotting, homogenized tissues or whole-cell lysates, samples were lysed in RIPA buffer containing protease inhibitor cocktail (Roche) and phosphatase inhibitor cocktail (Roche). Cell lysates were centrifuged at 14,000×g for 15 min and supernatants were prepared in 4×LDS Sample Buffer (Invitrogen) and separated by SDS-PAGE and transferred to Immobilon 0.45 μm membranes (Millipore). For Western blotting of plasma samples, 1 μl of plasma was prepared in 2× sample buffer (Invitrogen) with reducing agent, boiled, and analyzed using Western blot against indicated antibody. Protein kinase array (R&D systems ARY003B) was performed according to the manufacturers' description. All antibodies used in this paper are described in STAR methods.

DIO mice = assay: Therapeutic ISM1, Metformin or combined administration for 21 days in DIO mice; format: in vivo, mouse; conditions: daily for 21 days; compared with vehicle
Protocol: Therapeutic ISM1 recombinant protein administration in vivo. All pharmacologic studies using recombinant ISM1 protein were performed in mice with established diet-induced obesity or non-alcoholic fatty liver disease (NAFLD). For all experiments, male C57BL/6J mice purchased from Jax were fed either a high-fat diet (#D12492, Research Diets) or a NAFLD diet (#D09100310, Research Diets) prior to ISM1 protein injections. In all experiments, mice were mock injected with saline for three days prior to protein or drug injections to prevent stress-induced weight loss. Mice were I.P. injected with vehicle (saline) or indicated doses of ISM1 protein diluted in saline. For the 14-day experiments in NAFLD mice, 7-weeks old mice were fed with NAFLD diet for 3 weeks and then mock injected with saline for 3 days prior to protein injections. The induction of lipid accumulation with NAFLD diet was verified by the significant increase in hepatic lipid levels compared with mice on chow diet at the same time point. NAFLD mice were then daily I.P. injected with either vehicle (saline containing 5% DMSO and 10% Kolliphor) or indicated doses of ISM1 protein (500 μg/kg or 5 mg/kg) or with FXR agonist (30 mg/kg, GW4064, Sigma-Aldrich, #G5172) diluted in vehicle (saline containing 5% DMSO and 10% Kolliphor). For the 21-day experiments in HFD mice, mice were mock injected with saline for three days prior to protein injections. Mice were then daily I.P. injected with either vehicle (saline) or 5 mg/kg of ISM1 protein diluted in saline. Metformin (100 mg/kg, Sigma, #317240) was diluted in saline and daily administered by oral gavage. All groups received control injections by I.P. and oral gavage. At the end of the experiments, mice and tissue weights were recorded. Tissues and plasma were collected and frozen for further analyses.
Glucose tolerance and insulin tolerance tests. For glucose tolerance tests, mice were fasted overnight and I.P. injected with glucose at 2 g/kg body weight. Blood glucose levels were measured at 0, 15, 30, 45, 60, 90 and 120 mins. For insulin tolerance tests, mice were fasted for 2 h, and I.P. injected with 0.75 U/kg insulin. Blood glucose levels were measured at 0, 15, 30, 45, 60, 90 and 120 mins.

human SGBS adipocytes = assay: 2-deoxy-3H-glucose uptake in human SGBS adipocytes; format: cell-based
Protocol: as §1, §2

pAKT^S473 [2] = assay: pAKT S473 signaling in 3T3-F442A cells (phosphokinase array, western blot); format: cell-based; conditions: 5 min
Protocol: as §3

[3] = tested on: differentiated 3T3-L1 adipocytes; assay: 2-deoxy-3H-glucose uptake in differentiated 3T3-L1 adipocytes; format: cell-based; conditions: 1 h
Protocol: as §2

GLUT4 = GLUT4 translocation to the plasma membrane in primary adipocytes (immunostaining, fractionation); format: cell-based, mouse; conditions: 100 nM
Protocol: Biochemical analyses. Plasma insulin levels were measured using the Ultra-Sensitive Mouse Insulin ELISA kit (Crystal Chem Inc #90080). Plasma triglycerides were measured with Infinity triglyceride measurement kit (Thermo #TR22421) and tissue triglycerides were measured with a Triglyceride Colorimetric Assay Kit (Cayman #10010303). Lipolysis was measured in day 5 differentiated adipocytes after 4 hours of protein treatment using a glycerol release assay according to the protocol provided by the manufacturer (Abcam #ab133130). Plasma membrane protein extractions were performed according to the manufacturer's protocol (Abcam #ab65400).
Immunocytochemistry. Primary mouse preadipocytes were seeded onto collagen-coated 22 mm×22 mm coverslips and differentiated using the method above. On day 8, differentiated adipocytes were washed with PBS and starved in 0.5% BSA in KRH buffer (50 mM HEPES, 136 mM NaCl, 1.25 mM MgSO4, 1.25 mM CaCl2, 4.7 mM KCl, pH 7.4) for 3.5 h. Cells were treated with insulin or ISM1 for 30 min, followed by three washes with cold PBS. Cells were fixed with 4% PFA in PBS for 15 min at room temperature. After blocking with 2% BSA, 5% goat serum, 0.2% Triton-X in PBS for 1 hr, cells were incubated with diluted primary antibody at 4° C. overnight. The next day, cells were washed and incubated with secondary antibody on ice for 1 hr. Cells were imaged using confocal microscope (Leica TCS SP8). Hoechst (#33342, thermo fisher) was used as counterstain.

SREBP1c, FAS, ACC = assay: Lipogenic protein and gene expression in AML12 hepatocytes; format: cell-based, mouse; conditions: 50 nM insulin, with or without ISM1; 24 h
Protocol: (§4) Gene expression analysis. Total RNA from cultured cells or tissues was isolated using TRIzol (Thermo Fischer Scientific) and Rneasy mini kits (QIAGEN). RNA was reverse transcribed using the ABI high capacity cDNA synthesis kit. For qRT-PCR analysis, cDNA, primers and SYBR-green fluorescent dye (ABI) were used. Relative mRNA expression was determined by normalization with Cyclophilin levels using the ΔΔCt method.
as §3

pTyr = assay: Western blot of pTyr levels; format: cell-based; conditions: 100 nM; 2 minutes
Protocol: as §3

[4] = tested on: pAKT^T308, S6^S235/S236, PRAS40^Thr246, ERK1/2, PKA, PDK1, GSK3β; assay: Time-course western blot of intracellular signaling pathways in 3T3-F442A cells; format: cell-based; conditions: 100 nM; time course
Protocol: as §3

srebp1c = assay: Lipogenic gene and SREBP-1c protein expression in primary adipocytes; format: cell-based, mouse; conditions: primary adipocytes
Protocol: as §4, §3

[5] = tested on: IGF-I-Receptor β Tyr1135/1136 or Insulin receptor Tyr1150/1151; assay: Western blot of phosphorylated insulin and IGF receptors in 3T3-F442A cells; format: cell-based; conditions: 100 nM; 2 minutes
Protocol: as §3

AML12 hepatocytes = assay: Lipogenesis assay (3H-acetate incorporation into lipids) in AML12 hepatocytes; format: cell-based, mouse; conditions: 50 nM insulin; 24 h
Protocol: Lipogenesis Assay. Primary hepatocytes or AML12 hepatocytes were washed twice with warm PBS and starved in serum-free DMEM overnight. Indicated concentrations of insulin with or without ISM1 were added at the same time. After 24 h, a mixture of 10 μM cold acetate and 2 μCi [3H]-Acetate (#NET003H005MC, PerkinElmer) was added to each well and cells were incubated for another 4 hr. Cells were washed with PBS twice and lysed using 0.1 N hydrogen chloride. Lipids were extracted by 2:1 chloroform-methanol (v/v). After centrifugation at 3000×g for 10 min, the lower phase was transferred to scintillation vials and radioactivity was measured by liquid scintillation counting.

[6] = pre-treated for 30 min, ISM1 or insulin 100 nM

C=C1[C@@H](C)[C@H]2[C@H](Cc3ccccc3)NC(=O)[C@]23OC(=O)/C=C/[C@H](O)CCC[C@@H](C)C/C=C/[C@H]3[C@@H]1O [CytoB, reference compound]
passive glucose uptake as share of total glucose uptake (primary mouse adipocytes; 50 uM CytoB): less than 12%

COc1ccccc1N1CCN(c2ncnc3n[nH]c(Br)c23)CC1 [DG2]
effect of inhibitor on S6^S235/S236 (pAKT^S473 [1]; [6]): dose-dependently inhibited
pAKT in presence of inhibitor (pAKT^S473 [1]; [6]): remained intact

CCOc1cn(-c2ccc(F)cc2C)nc1C(=O)Nc1ccc(Oc2ccnc3cc(OC)c(OC)cc23)c(F)c1 [LDC1267]
effect of inhibitor on signaling induced by PDGFββ or insulin (pAKT^S473 [1]; any of the doses tested, insulin 200 nM, PDGF-ββ 20 ng/ml): neither the signaling induced by PDGFββ or insulin are inhibited
effect of inhibitor on ISM1-induced pAKT signaling (pAKT^S473 [1]; pre-treated for 30 min, ISM1 200 nM): inhibited

CN(C)C(=N)N=C(N)N [Metformin, reference compound]
fasting blood glucose (DIO mice): lower
glucose tolerance (GTT) (DIO mice): comparable effects on improving glucose tolerance

C[C@]1(O)C[C@@H](c2nc(-c3ccc4ccc(-c5ccccc5)nc4c3)c3c(N)nccn32)C1 [OSI-906, reference compound]
insulin-induced glucose uptake in presence of inhibitor (human SGBS adipocytes; 50 nM OSI-906): significantly reduced
ISM1-induced glucose uptake in presence of inhibitor (human SGBS adipocytes; 50 nM OSI-906, 100 nM ISM1): not affected
insulin signaling in presence of inhibitor (pAKT^S473 [1]; 1000 nM OSI-906, insulin 100 nM): completely abolished
ISM1 signaling in presence of inhibitor (pAKT^S473 [1]; even at 1000 nM OSI-906, ISM1 100 nM): intact

COc1ncc(-c2ccc3nccc(-c4ccnnc4)c3c2)cc1NS(=O)(=O)c1ccc(F)cc1F [Omipalisib]
effect of inhibitor on pAKT^S473 phosphorylation induced by ISM1 and insulin (pAKT^S473 [1]): completely block

Cc1ccc([N+](=O)[O-])cc1S(=O)(=O)N(C)/N=C/c1cnc2ccc(Br)cn12 [PIK]
effect of inhibitor on pAKT^S473 phosphorylation induced by ISM1 and insulin (pAKT^S473 [1]): completely block

CCC(=O)N1CCN(c2ccc(-n3c(=O)ccc4cnc5ccc(-c6cnc7ccccc7c6)cc5c43)cc2C(F)(F)F)CC1 [Torin]
effect of inhibitor on pAKT^S473 phosphorylation induced by ISM1 and insulin (pAKT^S473 [1]): fully ablates

Thrombospondin-1: his-tagged mouse Thrombospondin-1, control protein containing thrombospondin domains [reference compound]
bioactivity on pAKT^S473 (western blot) (pAKT^S473 [2]; 100 nM): no bioactivity

albumin [reference compound]
glucose uptake (protein control) (primary mouse adipocytes; 100 nM): no effect

insulin [reference compound]
induction of glucose uptake [3]: ~40 fold
dose at which dose-dependent increase in pAKT^S473 phosphorylation starts (pAKT^S473 [2]; increasing doses): 10 nM
concentration from which glucose uptake is increased (human SGBS adipocytes; doses ranging from 10 nM to 200 nM): 20 nM
GLUT4 in plasma membrane fraction (biochemical fractionation) (GLUT4; 4 h): translocation of GLUT4 to the plasma membrane
GLUT4 at cell surface (immunostaining, confocal microscopy) (GLUT4; compared with control cells): higher levels of GLUT4 at cell surface
SREBP1c cleavage, FAS and ACC protein expression (SREBP1c, FAS, ACC): increased expression of pre-SREBP1c as well as the cleaved SREBP1, and increased protein expression of FAS and ACC
tyrosine phosphorylation of proteins (pTyr): induces phosphorylation of its receptors at larger molecular weights
pAKT^T308 phosphorylation [4]: phosphorylation at pAKT^T308 at all time points
srebp1c expression under basal conditions (srebp1c): induces srebp1c expression
glucose uptake induction compared with ISM1 (primary mouse adipocytes; 1 h): higher glucose induction than ISM1
IGF-R/IR phosphorylation [5]: induced IGF-R/IR phosphorylation
de novo lipogenesis (AML12 hepatocytes): significant induction of lipogenesis
